Results as given in US12178805B2, “Inhibitors of PDE6Delta for use in the prevention and/or treatment of epilepsy and/or neurodegenerative disorders” (ReMYND N.V., priority 2017, dated 2024).

Experiments:
[1] = test system: VGCC activity in primary neurons; test: KCl-induced Ca2+ influx (VGCC activity) in primary neurons; type: cell-based, mouse; conditions: for inhibition at 10 µM: Mus musculus, Primary neuron, relative to vehicle treated neurons, KCl depolarisation, read-out: % inhibition of cytosolic Ca^2+ influx
Procedure: Examplary compound 6 was tested for its ability to inhibit VGCC activity in primary neurons. Neurons from mouse embryos were harvested and cultured using standard methods (such as used in Schlager et al., 2014. Cell reports, 8(5), pp. 1248-56). To stimulate VGCC activity, neurons were depolarized using 45 mM KCl and incubated with vehicle or 1.5 μM of compound. Calcium influx was measured using fluorescent cytosolic Ca^2+ detection reagent Fura2.
Changes in cytosolic Ca^2+ concentrations were measured after loading the cells with Fura-2 AM (Sigma-Aldrich), a cell permeable fluorescent probe for Ca^2+. Briefly, Fura-2-AM was dissolved in DMSO plus 20% Pluronic Acid (F-127) (Invitrogen) in a 1:1 ratio and diluted in medium to a final concentration of 0.5 μM. Probenecid (Sigma-Aldrich) was added to this loading medium at a final concentration of 2.5 mM. Then, culture medium was replaced by loading medium and after incubation for 1 hour at 37° C. cells were washed twice and replaced with HBSS (Gibco) supplemented with 0.2% FBS and 0.02M HEPES. Next, changes in cytosolic calcium were measured using a FlexStation 3 microplate reader (Molecular Devices) and quantified ratiometric, by calculating changes in the amount of cytosolic Ca^2+ bound Fura-2 (fluorescence intensity at 340 nm) relative to the amount of Ca^2+ unbound Fura-2 (fluorescence intensity at 380 nm). Data was processed in SoftMax Pro 5.4.6 software (Molecular Devices).
Compounds 1-7 were tested at 10 μM for their ability to inhibit Ca^2+ influx in primary neurons (FIG. 5) as described in Example 21 (Table 5). Primary neurons treated with vehicle in which no compound was dissolved was used as a no-effect control. The percentage (%) inhibition of Ca^2+ influx relative to vehicle treated neurons was calculated.

RAP1A binding on PDE6δ = molecular target: T1, RAP1A binding on PDE6δ (Homo sapiens, UniProt O43924); test: PDE6δ-STREP/HA pull-down from HEK293 cells with quantitative mass spectrometry of interactors; type: cell-based; conditions: 1 hour incubation of 1 μM
T1 construct: expressed in transfected cells
T1 sequence (O43924 whole entry): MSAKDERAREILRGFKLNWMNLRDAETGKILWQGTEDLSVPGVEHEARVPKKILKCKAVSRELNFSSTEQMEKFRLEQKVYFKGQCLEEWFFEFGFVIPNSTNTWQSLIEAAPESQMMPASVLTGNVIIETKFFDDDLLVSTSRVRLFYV
Description: PDE6δ together with associated proteins was precipitated from a cellular extract either in the presence or absence of Compound A:
Using mass spectrometry based techniques interacting proteins were quantitatively identified in function of compound presence (FIG. 11).
In the absence of Compound A a host of interacting proteins were identified including known interactors such as Arl3 and RPGR. […] This effect is highly specific since a non-prenylated interactor of PDE6δ such as Arl3 which bind PDE6δ via different mechanisms is not impacted.
The cDNA encoding human PDE6δ was fused with a STREP-HA tag encoding DNA sequence and expressed in HEK293 cells using a standard expression vector. The bait sequence was verified by sequencing. […] Bait expression and solubility was monitored by immunoblotting using anti-HA antibodies. […]
Affinity purification and mass spectrometrical analysis of PDE6δ-strep-HA expressed in HEK293 cells was performed with three biological replicates for label free quantitative mass spectrometrical analysis. The samples were analyzed on a Thermo LTQ Orbitrap XL spectrometer using a C18 column, ESI and a 60 min gradient. The signals' intenstity are provided as 2 Log values and correlates to the concentration of the detected mass (number/amount of peptide). […]

M17-TAU P301L cells = test: TAU-toxicity model, LDH leakage of retinoic acid incubated M17-TAU P301L cells; type: cell-based, human; conditions: non-silenced cells
Description: A TAU expression plasmid was constructed by sub-cloning the cDNA of human TAU-P301L (encoding for TAU with proline 301 substituted by a leucine residue) into mammalian expression vector pcDNA3.1 resulting in plasmid pcDNA3.1-TAU P301L. Plasmids pcDNA3.1 and pcDNA3.1-TAU P301L were transfected to human neuroblastoma cells ([…]; ATCC No. CRL-2267) and independent clonal lines with the plasmids stably integrated into the genome were selected. […] Expression of the TAU P301L genes in the cell lines was confirmed by Western analysis.
In degenerated or dead cells lactate dehydrogenase (LDH) leaks out of the cells into the extracellular environment due to a loss of plasma-membrane integrity. This principle was used to determine cytotoxicity by quantifying the level of leaked LDH into the growth medium relative to the sum of total LDH activity from living cells and dead cells.
(§1) The detailed method for determining cytotoxicity was as follows: From appropriate precultures of M17-3.1 and M17-TAU(P301L) cells were seeded at 2500 cells/cm2 in Optimem Reduced Serum without phenol red (Gibco, Cat. 31985-047) supplemented with 1% fetal calf serum, 1 mM sodium pyruvate, 1× non-essential amino acids, 500 μg/ml G418 0.5×antibiotic/antimycotic. After 3 hours of incubation at 37° C./5% CO2 1 volume of Optimem Reduced Serum (same as described above; except without fetal calf serum) supplemented with 2.5 μM all-trans retinoic acid (ATRA) was added. The cells were further incubated for 7 days. Subsequently, LDH activity was determined using Promega Cytotox 96 Non-Radioactive cytotoxicity assay, (Cat. G1780) according the supplier's instructions.
The M17-TAU P301L cell line made it possible to assess the ability of novel compounds to inhibit PDE6δ and counteract TAU cytotoxicity. […] These measurements were used to calculate EC50 values.

PDE6δ silenced cells = test: TAU-toxicity model in PDE6δ silenced cells; type: cell-based, human; conditions: compared with non-silenced cells
[2] = test system: transgenic human APP mice; test: Morris Water Maze test in transgenic APP mice; type: in vivo, mouse; conditions: 20 mg/kg subcutaneously, daily for 8 weeks, versus vehicle
Procedure: Transgenic human 4-month old APP mice (THE JOURNAL OF BIOLOGICAL […] Vol. 274, No. 10, Issue of March 5, pp. 6483-6492, 1999) were treated subcutaneously, daily for 8 weeks with examplary Compound 6 at 20 mg/kg (FIG. 7). Cognition was assessed using the Morris Water Maze test. […] After the learning phase a probe test was conducted in which the platform was removed from the water bath to evaluate the spatial memory of the location of the platform.
Both indices indicate that compound treated mice have improved cognitive performance almost identical to wild type controls compared to vehicle treated mice.

[3] = test system: phosphorylated TAU in brain; test: in vivo TAU phosphorylation in brain of transgenic APP*PS1 mice, Western analysis; design: species or system mouse; conditions: 20 mg/kg daily subcutaneously, 5-month old APP*PS1 mice, versus vehicle
Procedure: Transgenic human 5-month old APP*PS1 mice (The Journal of Neuroscience, Sep. 1, 2000, 20(17):6452-6458) were treated daily subcutaneously with 20 mg/kg Compound 6 or for two weeks with Compound A:
At the end of the treatment period, mice were sacrificed and the corresponding brains were used for biochemical analysis.

[4] = test system: CA1 pyramidal neurons in tgAPP mouse brain slices; test: firing rate of CA1 neurons in brain slices of tgAPP mice, patch clamp; conditions: 2 μM, 1 hr perfusion
Procedure: Brain slices from wild type and tgAPP mice were incubated with DMSO or Compound 6. Neurons were stimulated with increasing currents and the frequency of action potentials was measured.
Acute sagittal brain slices from WT or hAPP mice were prepared by decapitation of the mice after isoflurane anaesthesia. Brains were removed quickly and immersed during 3-4 min in ice-cold freshly prepared cutting artificial cerebrospinal fluid (cutting aCSF) containing (in mM) 214 sucrose, 2.5 KCl, 2 CaCl2), 2 MgSO4, 1.25 NaH2PO2, 26 NaHCO3 and 10 glucose and oxygenated with 95% O2/5% CO2. Sagittal 350 μm slices were generated using a vibratome (VT 1000S; Leica Microsystems) and were incubated in standard carboxygenated aCSF (in mM: 125 NaCl, 2.5 KCl, 2 CaCl2), 2 MgSO4, 1.25 NaH2PO2, 26 NaHCO3 and 10 glucose, osmolarity 305 mOsm) at 34° C. during 20 min. The incubation continued at room temperature (RT) for another hour before each slice was transferred to a submerged recording chamber and perfused continuously with carboxygenated aCSF. […]
Dendritic firing rate of CA1 cells was recorded in response to hyperpolarizing and depolarizing steps (−0.4 to +0.45 nA, steps of 0.05 nA) after a 1 hr perfusion with vehicle or compound at 2 μM. […]

mouse brain slices = test: afterhyperpolarization of single action potentials in mouse brain slices; conditions: slices incubated with compound versus vehicle
Procedure: A single spike was elicited by injecting a 2 ms depolarizing current pulse (35 pA) and action potential (AP) parameters were at baseline and after 25 min vehicle or compound perfusion.
Action potentials (AP) after electrical stimulation of mouse brain slices were analysed (FIG. 14).
The experiment was performed as described in Example 24.

[5] = test system: primary rat hippocampal neurons; test: ex-vivo inhibition of oligomeric amyloid beta (Aβo/ADDL) toxicity in primary neurons; type: cell-based; conditions: 100 ng/mL, 1000 nM ADDL, 24 h
Procedure: An exemplary compound of this invention was tested for its ability to inhibit toxicity elicited by oligomeric amyloid beta (Aβo). Neurons from rat embryos were harvested and cultured using standard methods (such as used in Schlager et al., 2014. Cell reports, 8(5), pp. 1248-56.). Differentiated neurons were challenged with Aβo and viability was quantified.
At day in-vitro 19 days after isolation primary hippocampal neurons were transfected with Marcks-GFP in order to visualize the neurons with fluorescence microscopy.
ADDL (Abeta-derived diffusible ligands) preparation (representing Aβo) was done according to Klein (Klein, 2002. Neurochemistry international, 41(5), pp. 345-52.). Abeta 1-42 was purchased from AnaSpec Inc. and dissolved in HFIP to homogenize the peptide. HFIP was then evaporated in a speedvac and Abeta film was dried at −20° C. overnight over desiccant. Abeta film was then resolubilised in 100% DMSO and further diluted (1/25) in Ham's F12 medium. Blanks were prepared by adding equal amounts of DMSO to Ham's F12 medium. Abeta and Blank solutions were incubated overnight at 4° C.
At day in-vitro 21 primary rat hippocampal neurons were treated with equal volume of Blank/ADDL solution amounting to 0 and 1000 nM ADDL. Cultures were kept at 37° C. 5% CO2 for 24 h before PFA fixation. Viability was assessed using the Live-Dead assay from Thermo Fisher Catalog number: L3224.

RAP1A silenced cells = test: TAU-toxicity model in RAP1A silenced cells; type: cell-based, human; conditions: compared with non-silenced cells
Procedure: as §1

O=C(NCCc1c[nH]c2ccc(F)cc12)c1cc(Cc2ccc(F)cc2F)on1 [Compound 1]
inhibition at 10 µM [1]: 43%

O=C(NCCc1c[nH]c2ccc(F)cc12)c1cc(Cc2ccc(F)c(F)c2)on1 [Compound 2]
inhibition at 10 µM [1]: 48%

O=C(NCCc1c[nH]c2ccc(F)cc12)c1cc(Cc2cc(F)cc(F)c2)on1 [Compound 3]
inhibition at 10 µM [1]: 42%

O=C(NCCc1c[nH]c2ccc(Cl)cc12)c1cc(Cc2cc(F)ccc2F)on1 [Compound A]
interaction of Arl3 (non-prenylated interactor) with PDE6δ (RAP1A binding on PDE6δ): not impacted | interaction of RAP1A with PDE6δ (RAP1A binding on PDE6δ): specifically reduced

O=C(NCCc1c[nH]c2ccc(F)cc12)c1cc(Cc2ccccc2F)on1 [Compound 7]
inhibition at 10 µM [1]: 56%

COC(=O)C1=C(C)NC(C)=C(C(=O)OC(C)C)C1c1cccc2nonc12 (stereo not shown) [isradepine]
effect on TAU-induced toxicity (M17-TAU P301L cells): lowered toxicity

c1ccc(Cn2c(-c3ccc(OC[C@H](C4CCNCC4)n4c(-c5ccccc5)nc5ccccc54)cc3)nc3ccccc32)cc1 [Deltarasin, reference compound]
effect on TAU-induced toxicity (M17-TAU P301L cells): lowered toxicity | effect of the compound on lowering toxicity in PDE6δ silenced cells (PDE6δ silenced cells): strongly reduced

O=C(NCCc1c[nH]c2ccc(F)cc12)c1cc(Cc2cccc(F)c2F)on1 [Compound 5]
inhibition at 10 µM [1]: 42%

O=C(NCCc1c[nH]c2ccc(F)cc12)c1cc(Cc2ccc(F)cc2)on1 [Compound 4]
inhibition at 10 µM [1]: 39%

O=C(NCCc1c[nH]c2ccc(F)cc12)c1cc(Cc2cc(F)ccc2F)on1 [Compound 6]
annulus crossing index in probe test [2]: higher annulus crossing index score | search path during training phase [2]: reduced search path | TAU phosphorylation in brain extracts [3]: effectively reduced TAU phosphorylation | frequency of action potentials at high stimulation [4]: significantly lowered the frequency towards wild type level | afterhyperpolarization of action potentials (mouse brain slices): increased | Ca^2+ influx upon KCl depolarisation ([1]; 1.5 μM, 45 mM KCl): significantly reduced | inhibition at 10 µM [1]: 43% | neuronal viability in Aβo treated neurons [5]: strongly rescued | effect on TAU-induced toxicity (M17-TAU P301L cells): reduced toxicity | effect of the compound on lowering toxicity in PDE6δ silenced cells (PDE6δ silenced cells): strongly reduced | compound effect on reducing neurotoxicity in RAP1A silenced cells (RAP1A silenced cells): strongly reduced
